In patent US20120269815A1, “NEUROTROPHINS AND USES THEREOF” (Regents of the University of Minnesota, priority 2008, published 2012):
No end group written: not given here.

System: primary culture hypothalamic neurons
Experiment: Activated-Caspase 3 expression in serum-deprived primary cultured hypothalamic neurons
Type: cell-based, mouse
Conditions: 48-hour serum deprivation; 50 nM TUF1[43-54] or 500 ng/ml anti-TUF1[43-54] IgG; preliminary qualitative analysis
Description: Gestational day 16.5 mouse embryos were collected from deeply anesthetized pregnant dam (i.p. injection of 10 mg/Kg Beuthanasia). Embryos were placed in HAM F12+10% Fetal Calf Serum (FCS)+1 mg/ml glucose. Whole brains were dissected and placed in a dish containing Phosphate Buffer Saline (PBS)+1 mg/ml glucose+10 mM HEPES. Hypothalami were dissected from embryonic brains and placed into a conical tube containing 2 ml HAM F12+10 mg/ml Glucose+10 mM HEPES. Cells were dissociated by pipetting and then centrifuged at 200×g for 5 minutes. Cells were suspended in culture medium (HAM F12+10% FCS+10 mg/ml glucose+10 mM HEPES+[…]) and plated at 200,000 cells/25 mm flask. Plated cells were incubated for four days in humidified incubator maintained at 37° C. and 5% CO2 (NuAire NU-8600, NuAire, Inc., Plymouth, Minn.).
To gain insight into the survival effect of TUF1[43-54] polypeptide, serum deprivation was used as a stressor. […] Cells were assessed for activated-Caspase 3 expression by immunocytochemistry after 48-hour incubation.
Cultured cells were rinsed with PBS (2×), fixed with 4% Paraformaldehyde (5 minutes) and permeabilized with PBS+0.1% Tween-20 (PBST). […] Excess antibody was removed by PBST and labeled cells were detected using IMMPACT DAB chromogen (Vector Laboratories, Inc., Burlingame, Calif.) per manufacturer's recommendation.

AYKSYVRALPLL [TUF1[43-54]]
cell death (activated-Caspase 3) following serum-deprivation: fewer cell death
